According to PubChem BioAssay AID330 (DTP/NCI, 2004):
Several values for one entry are separate records, joined by “and”; a condition that tells them apart may be missing. Equal values may be shown once. Inconclusive results and toxic doses are left out.

System: P388 leukemia ip, CD2F1 mice, survival T/C
Assay: NCI In Vivo Anticancer Drug Screen. Data for tumor model P388 Leukemia (intraperitoneal) in CD2F1 (CDF1) mice
Conditions: endpoint: median survival time, higher = longer survival
Procedure, shortened: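 Mice carrying the transplanted tumor received test compound or vehicle. Survival was recorded in each group, and the value is the treated-group measurement divided by that of the vehicle-treated control group.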

[1] = dose: 50.0 mg/kg/injection, schedule: Q01DX009 (ip), vehicle: Klucel (hydroxypropylcellulose) (HPC)
[2] = dose: 50.0 mg/kg/injection, schedule: Q01DX005 (ip), vehicle: Klucel (hydroxypropylcellulose) (HPC)
[3] = dose: 100.0 mg/kg/injection, schedule: Q01DX005 (ip), vehicle: Klucel (hydroxypropylcellulose) (HPC)
[4] = dose: 50.0 mg/kg/injection, schedule: Q01DX005 (ip), vehicle: saline with Tween-80
[5] = dose: 100.0 mg/kg/injection, schedule: Q01DX005 (ip), vehicle: saline with Tween-80
[6] = dose: 200.0 mg/kg/injection, schedule: Q01DX005 (ip), vehicle: saline with Tween-80

O=NN(CCCl)C(=O)Nc1ccc(CCO)cc1
T/C (dose: 0.22 mg/kg/injection, schedule: Q01DX009 (ip), vehicle: saline + alcohol): 118 % of control | T/C (dose: 0.5 mg/kg/injection, schedule: Q01DX009 (ip), vehicle: saline + alcohol): 154 % of control | T/C (dose: 0.75 mg/kg/injection, schedule: Q01DX009 (ip), vehicle: saline + alcohol): 172 % of control | T/C (dose: 4.0 mg/kg/injection, schedule: Q01DX009 (ip), vehicle: saline): 272 % of control | T/C (dose: 6.0 mg/kg/injection, schedule: Q01DX009 (ip), vehicle: saline): 272 % of control | T/C (dose: 9.0 mg/kg/injection, schedule: Q01DX009 (ip), vehicle: saline): 272 % of control

Cn1c(=O)c2cn[nH]c2n(C)c1=O
T/C [1]: 104 % of control | T/C (dose: 100.0 mg/kg/injection, schedule: Q01DX009 (ip), vehicle: Klucel (hydroxypropylcellulose) (HPC)): 100 % of control | T/C (dose: 200.0 mg/kg/injection, schedule: Q01DX009 (ip), vehicle: Klucel (hydroxypropylcellulose) (HPC)): 96 % of control

C/C(=N\Nc1ccc([N+](=O)[O-])cc1[N+](=O)[O-])c1ccc[nH]1
T/C (dose: 15.0 mg/kg/injection, schedule: Q01DX005 (ip), vehicle: saline with Tween-80): 96 % of control | T/C (dose: 30.0 mg/kg/injection, schedule: Q01DX005 (ip), vehicle: saline with Tween-80): 87 % of control | T/C (dose: 60.0 mg/kg/injection, schedule: Q01DX005 (ip), vehicle: saline with Tween-80): 89 % of control

C/C(=N/NC(=S)N1CC2CCC(CC2)C1)c1cnccn1
T/C (dose: 6.25 mg/kg/injection, schedule: Q01DX005 (ip), vehicle: saline with Tween-80): 102 % of control | T/C (dose: 12.5 mg/kg/injection, schedule: Q01DX005 (ip), vehicle: saline with Tween-80): 117 % of control

CC(C)(CNC(=O)C12CC3CC(CC(C3)C1)C2)NC(=O)C12CC3CC(CC(C3)C1)C2
T/C (dose: 12.5 mg/kg/injection, schedule: Q01DX005 (ip), vehicle: Klucel (hydroxypropylcellulose) (HPC)): 98 % of control | T/C (dose: 25.0 mg/kg/injection, schedule: Q01DX005 (ip), vehicle: Klucel (hydroxypropylcellulose) (HPC)): 107 % of control | T/C [2]: 93 % of control | T/C [3]: 88 % of control

COc1ccc(OC)c(/C=N/N=C2\C(=O)Nc3c(Cl)cc(Cl)cc32)c1
T/C [4]: 97 % of control | T/C [5]: 98 % of control | T/C [6]: 92 % of control

CC1CCC23COC(=O)C2=CCCC3C12CC(c1ccoc1)OC2=O (stereo unspecified)
T/C (dose: 0.03 mg/kg/injection, schedule: Q01DX009 (ip), vehicle: saline): 107 % of control | T/C (dose: 0.06 mg/kg/injection, schedule: Q01DX009 (ip), vehicle: saline): 104 % of control | T/C (dose: 0.12 mg/kg/injection, schedule: Q01DX009 (ip), vehicle: saline): 107 % of control | T/C (dose: 0.24 mg/kg/injection, schedule: Q01DX009 (ip), vehicle: saline): 103 % of control | T/C (dose: 0.5 mg/kg/injection, schedule: Q01DX009 (ip), vehicle: Klucel (hydroxypropylcellulose) (HPC)): 96 % of control | T/C (dose: 1.0 mg/kg/injection, schedule: Q01DX009 (ip), vehicle: Klucel (hydroxypropylcellulose) (HPC)): 96 % of control | T/C (dose: 2.0 mg/kg/injection, schedule: Q01DX009 (ip), vehicle: Klucel (hydroxypropylcellulose) (HPC)): 98 % of control

NC(=O)N/N=C1/CCC(OC(=O)c2ccccc2)CC1CC(=O)O (stereo unspecified)
T/C [4]: 100 % of control | T/C [5]: 100 % of control | T/C [6]: 100 % of control

O=C(O)CCCNS(=O)(=O)c1ccc(S(=O)(=O)NCCCC(=O)O)cc1
T/C [2]: 99 % of control | T/C [3]: 103 % of control | T/C (dose: 200.0 mg/kg/injection, schedule: Q01DX005 (ip), vehicle: Klucel (hydroxypropylcellulose) (HPC)): 103 % of control

O=C(O)[C@@H]1C[C@@H](O)CN1
T/C (dose: 50.0 mg/kg/injection, schedule: Q01DX009 (ip), vehicle: saline): 96 % of control | T/C (dose: 100.0 mg/kg/injection, schedule: Q01DX009 (ip), vehicle: saline): 96 % of control | T/C (dose: 200.0 mg/kg/injection, schedule: Q01DX009 (ip), vehicle: saline): 100 % of control

CC(=O)N=C1C=C(NC(C)=O)C(=O)c2ccccc21
T/C (dose: 6.25 mg/kg/injection, schedule: Q01DX009 (ip), vehicle: Klucel (hydroxypropylcellulose) (HPC)): 103 % of control | T/C (dose: 12.5 mg/kg/injection, schedule: Q01DX009 (ip), vehicle: Klucel (hydroxypropylcellulose) (HPC)): 99 % of control and 100 % of control and 116 % of control | T/C (dose: 25.0 mg/kg/injection, schedule: Q01DX009 (ip), vehicle: Klucel (hydroxypropylcellulose) (HPC)): 100 % of control and 105 % of control and 124 % of control | T/C [1]: 112 % of control
